Earlier results on one compound are cited in patent publication US20250144120A1, “COMPOSITIONS AND METHODS FOR TREATING SKIN CONDITIONS” (priority 2023, published 2025).

For data set [1], the system named is skin (rabbits).
In data set [2] the test system is skin (guinea pigs).
Data set [3] deals with animal subjects.
Data set [4] deals with eyes (rabbits).

For the compound `CCCCCCCCCCCCCCCCCCCCC[N+](C)(C)[Si](O)(O)O.[Cl-]` [Octadecyldimethyltrihydroxysilyl propyl ammonium chloride], the skin irritation entry in data set [1] and in data set [2] was “does not irritate” each time. Further, the LD50 via ingestion in data set [3] (ingestion) is greater than 5000 mg/kg. In addition, the LD50 via inhalation in data set [3] (inhalation) is greater than 2 mg/L. In addition, the eye irritation entry in data set [4] is on record as “does not irritate”.
